# Biological target: T1, Proteinase K (Parengyodontium album, UniProt P06873)
# T1 construct: purchased RayBiotech, Norcross, GA, USA
# Assay: Peptide degradation by proteinase K
# Type: in vitro ADME
# Details: proteinase K 0.05 mg ml^-1, 37°C, 4 h, D-RADA16 0.2 mg ml^-1, intact peptide by HPLC (C18), three replicates
# Procedure: Proteinase K solution (RayBiotech, Norcross, GA, USA) (0.05 mg ml^−1) was added in D-RADA16 and nHA/PA66/D-RADA16 groups, respectively. All samples were incubated at 37°C, and 400 µl aliquots were removed at various time points (1, 2, 4, 6, 8, 12, 24 and 48 h). The enzymatic reaction was terminated by the addition of phenylmethanesulfonyl fluoride (working concentration: 0.1 to 1 mM) and the concentration of the intact peptide were analysed by HPLC (LCMS-2020; Shimadzu, Kyoto, Japan) under the following conditions: Venusil XBP C18, 5 µm, 4.6 × 50 mm (Agela, Tianjin, China); sample injection volume: 100 µl; gradient elution: A, 0.035% trifluoroacetic acid (TFA) in water; and B, 0.035% TFA in acetonitrile/water (80 : 20, vol/vol). A gradient of 10–100% B in 10 min was conducted. The experiment was conducted in three replicates.
# Proteinase K, a highly non-specific proteolytic enzyme, was used to examine the stability of D-RADA16 in the various composites. The concentration of each D-RADA16 was set to 0.2 mg ml^−1. And after 4 h, only 30–40% of the peptide remained in the control samples, whereas over 50% of the peptide still remained in the experimental samples. Similar results were observed after 24 and 48 h (figure 1d).
# T1 sequence (P06873 106-384): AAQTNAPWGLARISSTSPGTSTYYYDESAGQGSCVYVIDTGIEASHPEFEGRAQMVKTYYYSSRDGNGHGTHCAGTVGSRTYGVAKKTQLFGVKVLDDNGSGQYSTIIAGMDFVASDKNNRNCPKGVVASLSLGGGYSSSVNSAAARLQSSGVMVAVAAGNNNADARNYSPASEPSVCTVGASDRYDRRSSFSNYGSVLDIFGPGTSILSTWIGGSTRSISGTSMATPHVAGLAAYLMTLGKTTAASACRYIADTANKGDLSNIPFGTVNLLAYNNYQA
structure (smiles),measurement,value
"CC(=O)N[C@H](CCCNC(=N)N)C(=O)N[C@H](C)C(=O)N[C@H](CC(=O)O)C(=O)N[C@H](C)C(=O)N[C@H](CCCNC(=N)N)C(=O)N[C@H](C)C(=O)N[C@H](CC(=O)O)C(=O)N[C@H](C)C(=O)N[C@H](CCCNC(=N)N)C(=O)N[C@H](C)C(=O)N[C@H](CC(=O)O)C(=O)N[C@H](C)C(=O)N[C@H](CCCNC(=N)N)C(=O)N[C@H](C)C(=O)N[C@H](CC(=O)O)C(=O)N[C@H](C)C(N)=O [D-RADA16, Ac-RADARADARADARADA-CONH2]",intact peptide remaining,30–40%
